The subject of assay [1] is CFA-induced paw radiant heat hypersensitivity. The assay is described as follows: CFA-induced paw radiant heat hypersensitivity. It is filed as in vivo, rat. To be noted: Rattus norvegicus, po, HPβCD; for inhibition in vivo at 30 mg/kg: 30 mg/kg p.o., last time point 180 or 300 min; for inhibition in vivo at 10 mg/kg: 5 h, 10 mg/kg p.o., last time point 300 min. On the procedure:
Each rat was placed in a test chamber on a warm glass surface and allowed to acclimate for approximately 10 min. A radiant thermal stimulus (beam of light) was then focused through the glass onto the plantar surface of each hind paw in turn. The thermal stimulus was automatically shut off by a photoelectric relay when the paw was moved or when the cut-off time was reached (20 sec for radiant heat at ˜5 amps). An initial (baseline) response latency to the thermal stimulus was recorded for each animal prior to the injection of complete Freund's adjuvant (CFA). […] Immediately following the post-CFA latency assessment, the indicated test compound or vehicle was administered orally.
The percent reversal (% R) of hypersensitivity was calculated in one of two different ways: 1) using group mean values or 2) using individual animal values. More specifically:
Method 2. For some compounds, the % R of hypersensitivity was calculated separately for each animal according to the following formula: % reversal=[(individual treatment response−individual CFA response)/(individual baseline response−individual CFA response)]×100. Results are given as a mean of the maximum % reversal values calculated for each individual animal.

The target of assay [2] is T1, purified wild type MGL (wt-MGLL 6H-11-313) (Homo sapiens, UniProt Q99685).
T1 sequence (Q99685 1-303): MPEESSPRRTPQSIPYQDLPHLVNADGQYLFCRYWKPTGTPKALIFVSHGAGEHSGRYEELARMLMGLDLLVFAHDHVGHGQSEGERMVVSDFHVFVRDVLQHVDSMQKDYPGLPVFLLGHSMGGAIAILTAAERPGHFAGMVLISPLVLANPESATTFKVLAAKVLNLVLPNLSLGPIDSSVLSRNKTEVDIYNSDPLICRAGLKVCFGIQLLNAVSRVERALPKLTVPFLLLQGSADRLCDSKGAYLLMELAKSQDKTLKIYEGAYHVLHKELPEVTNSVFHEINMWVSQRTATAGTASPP

A further assay deals with T2, MGL (Rattus norvegicus, UniProt Q8R431).
T2 construct: one g rat brain was homogenized using a Polytron homogenizer; from tissue; host or cells: rat brain homogenate
T2 sequence (Q8R431 1-303): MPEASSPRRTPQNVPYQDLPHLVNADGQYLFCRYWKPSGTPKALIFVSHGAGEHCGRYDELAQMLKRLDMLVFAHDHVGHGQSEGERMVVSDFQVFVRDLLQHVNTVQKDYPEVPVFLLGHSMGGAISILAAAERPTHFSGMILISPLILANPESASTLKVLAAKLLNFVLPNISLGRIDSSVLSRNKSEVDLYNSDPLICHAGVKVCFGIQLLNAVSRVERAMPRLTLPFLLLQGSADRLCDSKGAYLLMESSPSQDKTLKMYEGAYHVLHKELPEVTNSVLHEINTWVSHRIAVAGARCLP
The assay is described as follows: 2-AG accumulation assay in rat brain homogenate. It is filed as biochemical. Conditions: rat brain homogenate; compound 1 μM; 2-AG accumulation as percent of vehicle; read-out: Rat Brain 2AG % VehCntrl (%) @ 1 μM.

A further assay addresses T3, mutant MGL (Homo sapiens, UniProt Q99685, L169S/L176S).
T3 sequence (Q99685 1-303 L169S/L176S): T1 sequence (Q99685 1-303) with L169S, L176S
Briefly: MGL ThermoFluor assay - mutant. It counts as binding.

Where [3] appears, read: group mean values, read-out: CFA thermal hypersensitivity Method 1: peak % reversal.
Setting [4] is: individual animal values, read-out: CFA thermal hypersensitivity Method 2: peak % reversal.
Setting [5] is: ThermoFluor, compound concentration measured by qNMR, read-out: MGL mutant ThermoFluor qKd (μM) (using qNMR conc.).
Where [6] appears, read: ThermoFluor thermal stability binding assay, read-out: MGL mutant ThermoFluor Kd.

The results in this text go back to patent US8362000B2, “Azetidinyl diamides as monoacylglycerol lipase inhibitors” (Janssen Pharmaceutica NV, priority 2009, dated 2013).

Changes are numbered by the printed parent chain. Read-outs that look alike come from different tables or passages of the source. A value given as a limit tells only on which side of the number the result lay.

As to `O=C(c1ccc2nc(-c3ccccc3)oc2c1)N1CC(N2CCN(C(=O)c3nccs3)CC2)C1` [Cpd 318, 2-Phenyl-6-({3-[4-(1,3-thiazol-2-ylcarbonyl)piperazin-1-yl]azetidin-1-yl}carbonyl)-1,3-benzoxazole], in assay [1] (setting [3]), the inhibition in vivo at 30 mg/kg was 44.7%.

As for `O=C(c1ccccc1)N1CCN(C2CN(C(=O)c3ccc4c(ccn4-c4ccc(C(F)(F)F)cc4)c3)C2)CC1` [Cpd 126, 5-({3-[4-(Phenylcarbonyl)piperazin-1-yl]azetidin-1-yl}carbonyl)-1-[4-(trifluoromethyl)phenyl]-1H-indole], in assay [1] (setting [3]), the inhibition in vivo at 10 mg/kg is 40.8% and the inhibition in vivo at 30 mg/kg was 51%. In addition, in assay [1] (setting [4]), the inhibition in vivo at 10 mg/kg turned out to be 40.4% and the inhibition in vivo at 30 mg/kg turned out to be 79.5%.

`O=C(c1ccc2c(ccn2-c2ccc(F)cc2)c1)N1CC(N2CCN(C(=O)c3nccs3)CC2)C1` [Cpd 487, 1-(4-Fluorophenyl)-5-({3-[4-(1,3-thiazol-2-ylcarbonyl)piperazin-1-yl]azetidin-1-yl}carbonyl)-1H-indole]: the inhibition in vivo at 30 mg/kg worked out at 109% in assay [1] (setting [3]) and 166% in assay [1] (setting [4]).

With `O=C(c1nccs1)N1CCN(C2CN(C(=O)c3sc4cc(C(F)(F)F)ccc4c3F)C2)CC1` [Cpd 895, 1-(1-{[3-Fluoro-6-(trifluoromethyl)-1-benzothiophen-2-yl]carbonyl}azetidin-3-yl)-4-(1,3-thiazol-2-ylcarbonyl)piperazine], the inhibition in vivo at 30 mg/kg in assay [1] (setting [3]) was determined as 23.4%. Also, in assay [2], the IC50 (in general, the concentration that inhibits the measured activity by half) is below 5 nM.

As to `O=C(c1ccccc1)N1CCN(C2CN(C(=O)c3ccc4c(ccn4-c4ccc(F)cc4)c3)C2)CC1` [Cpd 567, 1-(4-Fluorophenyl)-5-({3-[4-(phenylcarbonyl)piperazin-1-yl]azetidin-1-yl}carbonyl)-1H-indole], the inhibition in vivo at 30 mg/kg in assay [1] (setting [3]) was 63.1%.

`O=C(c1cscn1)N1CCN(C2CN(C(=O)c3sc4cc(C(F)(F)F)ccc4c3Cl)C2)CC1` [Cpd 335, 1-(1-{[3-Chloro-6-(trifluoromethyl)-1-benzothiophen-2-yl]carbonyl}azetidin-3-yl)-4-(1,3-thiazol-4-ylcarbonyl)piperazine]: the values for the inhibition in vivo at 30 mg/kg in assay [1] (setting [3]) and in assay [1] (setting [4]) were 108% and 135%, respectively.

For the compound `O=C(c1ccc2nc(-c3ccccc3)oc2c1)N1CC(N2CCN(C(=O)c3cscn3)CC2)C1` [Cpd 1141, 2-Phenyl-6-({3-[4-(1,3-thiazol-4-ylcarbonyl)piperazin-1-yl]azetidin-1-yl}carbonyl)-1,3-benzoxazole], the inhibition in vivo at 30 mg/kg in assay [1] (setting [3]) turned out to be 5.7%.

Consider `Cc1cc(C(=O)N2CC(N3CCN(C(=O)c4ccns4)CC3)C2)ccc1-c1cccc(C(F)(F)F)c1` [Cpd 1114, 1-(Isothiazol-5-ylcarbonyl)-4-(1-{[2-methyl-3′-(trifluoromethyl)biphenyl-4-yl]carbonyl}azetidin-3-yl)piperazine], for which, on MGL, the 2-AG accumulation, % of vehicle control at 1 µM was 293%. The Kd at mutant MGL (ThermoFluor concentration-response, read-out: MGL mutant ThermoFluor Kd) was 0.049 µM. In assay [2], this compound gave an IC50 of 16 nM.

In the case of `O=C(c1cscn1)N1CCN(C2CN(C(=O)c3sc4cc(F)c(C(F)(F)F)cc4c3Cl)C2)CC1` [Cpd 659], on MGL, the 2-AG accumulation, % of vehicle control at 1 µM amounted to 576%. Also, the Kd on mutant MGL (setting [5]) is 0.006 µM. In assay [2], this compound yielded an IC50 of 9 nM.

With `O=C(c1ccc2c(c1)Sc1ccccc1O2)N1CC(N2CCN(C(=O)c3cscn3)CC2)C1` [Cpd 654], the 2-AG accumulation, % of vehicle control at 1 µM at MGL came out at 389%. Also, the Kd on mutant MGL (setting [6]) turned out to be 0.04 µM. In assay [2], this compound returned an IC50 of 7 nM.

`O=C(c1ccccc1)N1CCc2cc(C(=O)N3CC(N4CCN(C(=O)c5nccs5)CC4)C3)ccc2C1` [Cpd 736]: the 2-AG accumulation, % of vehicle control at 1 µM on MGL came out at 499%. Further, on mutant MGL (setting [6]), the Kd is 0.067 µM. The IC50 in assay [2] came out at 273 nM.

`Cc1cc(C(=O)N2CC(N3CCN(C(=O)c4nccs4)CC3)C2)sc1-c1ccc(C(F)(F)F)cc1` [Cpd 1352]: at MGL, the 2-AG accumulation, % of vehicle control at 1 µM came to 548%. For the same compound, at mutant MGL (setting [5]), the Kd came out at 0.008 µM. The compound further registered an IC50 in assay [2] below 5 nM.
